Source: ChEMBL document CHEMBL1133636, “Discovery of (2S)-1-(4-amino-2,3,5- trimethylphenoxy)-3-[4-[4-(4- fluorobenzyl)phenyl]-1-piperazinyl]-2-propanol dimethanesulfonate (SUN N8075): a dual Na(+) and Ca(2+) channel blocker with antioxidant activity” (J Med Chem, 2000)

Legend:
[1] = Inhibition of low-threshold (T-type) Calcium [Ca2+] currents in primary cultured rat cerebrocortical neurons using whole-cell voltage-clamp recording technique; assay type: functional
[2] = Tested for anticonvulsant effects on audiogenic seizures in DBA/2 mice; administered intra peritonealy; assay type: functional; details: Mus musculus
[3] = biological target: Sodium channel alpha subunits; brain (Types I, II, III) (Rattus norvegicus, UniProt P04775+P04774+P08104); experiment: Inhibition of veratridine-induced depolarization of rat cerebrocortical synaptosomes using a membrane potential sensitive fluorescent dye, rhodamine 6G; assay type: functional, subcellular
D(2) dopamine receptor = D(2) dopamine receptor (Rattus norvegicus, UniProt P61169); experiment: Concentration required for 50% inhibitory effect on Dopamine receptor D2 determined in competition experiments with [3H]raclopride
Rattus norvegicus [4] = organism: Rattus norvegicus; experiment: Concentration required for 50% inhibitory effect on automatic oxidation in plasma membrane of rat brain homogenates by measuring malondialdehyde and 4-hydroxyalkenals using peroxidized lipid colorimetric assay kit; assay type: functional
Rattus norvegicus [5] = organism: Rattus norvegicus; experiment: Concentration required for 50% inhibitory effect on automatic oxidation in plasma membrane of rat brain homogenates by measuring malondialdehyde and 4-hydroxyalkenals using peroxidized lipid colorimetric assay kit.; assay type: functional

Sequence of D(2) dopamine receptor (P61169 whole entry): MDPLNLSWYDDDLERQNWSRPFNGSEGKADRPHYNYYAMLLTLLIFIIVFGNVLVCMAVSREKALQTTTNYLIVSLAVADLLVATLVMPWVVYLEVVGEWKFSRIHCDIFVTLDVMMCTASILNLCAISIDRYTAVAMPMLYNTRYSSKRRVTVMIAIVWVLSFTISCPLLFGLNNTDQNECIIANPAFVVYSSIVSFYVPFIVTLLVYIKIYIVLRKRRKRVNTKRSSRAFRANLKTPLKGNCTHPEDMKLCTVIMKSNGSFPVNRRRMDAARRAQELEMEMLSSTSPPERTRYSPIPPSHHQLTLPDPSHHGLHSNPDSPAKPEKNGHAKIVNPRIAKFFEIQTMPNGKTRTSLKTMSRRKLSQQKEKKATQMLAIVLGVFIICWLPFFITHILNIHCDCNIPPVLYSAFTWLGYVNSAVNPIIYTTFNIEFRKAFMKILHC

| IC50 [1] | IC50 [3] | IC50 (D(2) dopamine receptor) | IC50 (Rattus norvegicus [4]) | IC50 (Rattus norvegicus [5]) | SMILES | ED50 [2] |
| --- | --- | --- | --- | --- | --- | --- |
| 2000 nM | 420 nM | > 10000 nM | 310 nM | – | CS(=O)(=O)O.CS(=O)(=O)O.Cc1cc(OC[C@@H](O)CN2CCN(c3ccc(Cc4ccc(F)cc4)cc3)CC2)c(C)c(C)c1N | 6.5 mg/kg |
| 300 nM | 360 nM | 1690 nM | 20000 nM | – | CC(C)c1ccc(CN2CCN(C(c3ccc(F)cc3)c3ccc(F)cc3)CC2)c(=O)c(NCCO)c1 | 14.5 mg/kg |
| – | – | – | – | > 100000 nM | Cc1c(C)c2c(c(C)c1O)CC[C@@](C)(CCC[C@H](C)CCC[C@H](C)CCCC(C)C)O2 [ALPHA-TOCOPHEROL] | – |
| 2200 nM | – | – | – | – | Fc1ccc(C(c2ccc(F)cc2)N2CCN(C/C=C/c3ccccc3)CC2)cc1 [FLUNARIZINE] | 11.4 mg/kg |
